# Laboratory results as given in patent US9856216B2, “Compounds as TNIK, IKKε and TBK1 inhibitors and pharmaceutical composition comprising same” (GREEN CROSS CORPORATION, priority 2015, dated 2018).
# Where a name gives a salt, the structure may show the parent alone.
# Biological target: T1, TNIK (Homo sapiens, UniProt Q9UKE5)
# T1 construct: purchased Promega V4158
# Assay: ADP-Glo Kinase Assay, inhibition activity on TNIK
# Format: biochemical
# Conditions: not given
# Description: The inhibition activities on TNIK, IKKε and TBK1 were measured by a luminometer, TNIK/IKKε/TBK1 Kinase Enzyme System (Promega, Ca# V4158; Invitrogen, PR8031B, Promega, Ca# V3991) and ADP-Glo Kinase Assay using ADP-Glo™ Kinase Analysis Kit (Promega, Ca# V9101) and a kinase reaction buffer [40 mM Tris(pH 7.5), 20 mM MgCl2, 0.1 mg/mL BSA] in accordance with the manufacturer's protocol.
# T1 sequence (Q9UKE5 1-367 limits assumed): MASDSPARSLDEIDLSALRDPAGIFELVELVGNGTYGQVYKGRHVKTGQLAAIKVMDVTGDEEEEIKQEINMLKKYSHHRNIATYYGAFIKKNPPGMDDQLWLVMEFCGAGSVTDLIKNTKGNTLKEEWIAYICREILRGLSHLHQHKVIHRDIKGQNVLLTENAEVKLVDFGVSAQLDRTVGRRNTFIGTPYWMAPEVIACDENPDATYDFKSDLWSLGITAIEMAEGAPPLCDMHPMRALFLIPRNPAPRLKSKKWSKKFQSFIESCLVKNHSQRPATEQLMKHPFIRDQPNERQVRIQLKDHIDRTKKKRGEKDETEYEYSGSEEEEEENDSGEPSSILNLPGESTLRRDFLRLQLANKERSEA
row,TNIK (μM),SMILES
1,Insoluble,"CN(C)CCCNc1ccc(C(=O)Nc2ccc(-c3cccc(F)c3F)c3c2C(=O)NC3)cc1 [Example 368, N-(7-(2,3-difluorophenyl)-3-oxoisoindolin-4-yl)-4-((3-(dimethylamino)propyl)amino)benzamide]"
2,Insoluble,"O=C(Nc1ccc(-c2cccs2)c2c1C(=O)NC2)c1ccc(NCCO)cc1 [Example 371, 4-((2-Hydroxyethyl)amino)-N-(3-oxo-7-(thiophen-2-yl)isoindolin-4-yl)benzamide]"

# Same assay, conditions: read-out: TNIK
row,SMILES,IC50
1,"O=C(Nc1ccc(-c2ccco2)c2c1C(=O)NC2)c1ccc(NCCCN2CCCC2)cc1 [Example 339, N-(7-(furan-2-yl)-3-oxoisoindolin-4-yl)-4-((3-(pyrrolidin-1-yl)propyl)amino)benzamide]",310 nM
2,"CN(C)CCNc1ccc(C(=O)Nc2ccc(-c3cccc4ncoc34)c3c2C(=O)NC3)cc1 [Example 341, N-(7-(benzo[d]oxazol-7-yl)-3-oxoisoindolin-4-yl)-4-((2-(dimethylamino)ethyl)amino)benzamide]",38 nM
3,"O=C(Nc1ccc(-c2cccc3ncoc23)c2c1C(=O)NC2)c1ccc(NCCN2CCCCC2)cc1 [Example 342, N-(7-(benzo[d]oxazol-7-yl)-3-oxoisoindolin-4-yl)-4-((2-(piperidin-1-yl)ethyl)amino)benzamide]",43 nM
4,"O=C(Nc1ccc(-c2cccc3ncoc23)c2c1C(=O)NC2)c1ccc(NCCCN2CCCCC2)cc1 [Example 343, N-(7-(benzo[d]oxazol-7-yl)-3-oxoisoindolin-4-yl)-4-((3-(piperidin-1-yl)propyl)amino)benzamide]",42 nM
5,"O=C(Nc1ccc(-c2cccc3ncoc23)c2c1C(=O)NC2)c1ccc(NCCN2CCCCCC2)cc1 [Example 344, 4-((2-(Azepan-1-yl)ethyl)amino)-N-(7-(benzo[d]oxazol-7-yl)-3-oxoisoindolin-4-yl)benzamide]",61 nM
6,"O=C(Nc1cccc2c1C(=O)NC2)c1ccc(NCCN2CCCC2)cc1 [Example 346, N-(3-oxoisoindolin-4-yl)-4-((2-(pyrrolidin-1-yl)ethyl)amino) benzamide]",6170 nM
7,"COc1cccc(-c2ccc(NC(=O)c3ccc(OCCN4CCOCC4)cc3)c3c2CNC3=O)c1OC [Example 347, N-(7-(2,3-dimethoxyphenyl)-3-oxoisoindolin-4-yl)-4-(2-morpholinoethoxy)benzamide]",200 nM
8,"Nc1cccc(-c2ccc(NC(=O)c3ccc(NCCN4CCOCC4)cc3)c3c2CNC3=O)c1O [Example 348, N-(7-(3-amino-2-hydroxyphenyl)-3-oxoisoindolin-4-yl)-4-((2-morpholinoethyl)amino)benzamide]",3180 nM
9,"COc1ccccc1-c1ccc(NC(=O)c2ccc(NCCN3CCCCCC3)cc2)c2c1CNC2=O [Example 349, 4-((2-(Azepan-1-yl)ethyl)amino)-N-(7-(2-methoxyphenyl)-3-oxoisoindolin-4-yl)benzamide]",240 nM
10,"COc1cccc(-c2ccc(NC(=O)c3ccc(NCCN4CCCCCC4)cc3)c3c2CNC3=O)c1OC [Example 350, 4-((2-(Azepan-1-yl)ethyl)amino)-N-(7-(2,3-dimethoxyphenyl)-3-oxoisoindolin-4-yl)benzamide]",61 nM
11,COc1ccccc1-c1ccc(NC(=O)c2ccc(NCCCO)cc2)c2c1CNC2=O [Example 354],220 nM
12,"COc1ccccc1-c1ccc(NC(=O)c2ccc(NCCCCO)cc2)c2c1CNC2=O [Example 356, 4-((4-Hydroxybutyl)amino)-N-(7-(2-methoxyphenyl)-3-oxoisoindolin-4-yl)benzamide]",250 nM
13,"O=C(Nc1ccc(-c2ccccc2O)c2c1C(=O)NC2)c1ccc(NCCCCO)cc1 [Example 357, 4-((4-Hydroxybutyl)amino)-N-(7-(2-hydroxyphenyl)-3-oxoisoindolin-4-yl)benzamide]",640 nM
14,"O=C(Nc1ccc(-c2cccc(F)c2F)c2c1C(=O)NC2)c1ccc(NCCN2CCOCC2)cc1 [Example 359, N-(7-(2,3-difluorophenyl)-3-oxoisoindolin-4-yl)-4-((2-morpholinoethyl)amino)benzamide]",170 nM
15,"COc1ccccc1-c1ccc(NC(=O)c2ccc(NCCN3CCCCC3)cc2)c2c1CNC2=O [Example 361, N-(7-(2-methoxyphenyl)-3-oxoisoindolin-4-yl)-4-((2-(piperidin-1-yl)ethyl)amino)benzamide]",170 nM
16,"O=C(Nc1ccc(-c2cccc(F)c2F)c2c1C(=O)NC2)c1ccc(NCCN2CCCC2)cc1 [Example 364, N-(7-(2,3-difluorophenyl)-3-oxoisoindolin-4-yl)-4-((2-(pyrrolidin-1-yl)ethyl)amino)benzamide]",180 nM
17,"O=C(Nc1ccc(-c2cccc(F)c2F)c2c1C(=O)NC2)c1ccc(NCCN2CCCC2)cc1 [Example 365, N-(7-(2,3-difluorophenyl)-3-oxoisoindolin-4-yl)-4-((2-(pyrrolidin-1-yl)ethyl)amino)benzamide hydrochloride]",170 nM
18,"O=C(Nc1ccc(-c2cccc(F)c2F)c2c1C(=O)NC2)c1ccc(NCCCN2CCCC2)cc1 [Example 366, N-(7-(2,3-difluorophenyl)-3-oxoisoindolin-4-yl)-4-((3-(pyrrolidin-1-yl)propyl)amino)benzamide hydrochloride]",170 nM
19,"CN(C)CCNc1ccc(C(=O)Nc2ccc(-c3cccc(F)c3F)c3c2C(=O)NC3)cc1 [Example 367, N-(7-(2,3-difluorophenyl)-3-oxoisoindolin-4-yl)-4-((2-(dimethylamino)ethyl)amino)benzamide]",280 nM
20,"COCCNc1ccc(C(=O)Nc2ccc(-c3cccs3)c3c2C(=O)NC3)cc1 [Example 372, 4-((2-Methoxyethyl)amino)-N-(3-oxo-7-(thiophen-2-yl)isoindolin-4-yl)benzamide]",1360 nM
21,"O=C(Nc1ccc(-c2cccs2)c2c1C(=O)NC2)c1ccc(NCCN2CCCCC2)cc1 [Example 374, N-(3-oxo-7-(thiophen-2-yl)isoindolin-4-yl)-4-((2-(piperidin-1-yl)ethyl)amino)benzamide]",480 nM
22,"O=C(Nc1ccc(-c2cccs2)c2c1C(=O)NC2)c1ccc(NCCN2CCOCC2)cc1 [Example 375, 4-((2-Morpholinoethyl)amino)-N-(3-oxo-7-(thiophen-2-yl)isoindolin-4-yl) benzamide]",540 nM
23,"O=C(Nc1ccc(-c2cccc3ncoc23)c2c1C(=O)NC2)c1ccc(NCCN2CCCC2)cc1 [Example 376, N-(7-(benzo[d]oxazol-7-yl)-3-oxoisoindolin-4-yl)-4-((2-(pyrrolidin-1-yl)ethyl)amino)benzamide]",72 nM
24,"Cc1nc2cccc(-c3ccc(NC(=O)c4ccc(NCCN5CCCC5)cc4)c4c3CNC4=O)c2o1 [Example 377, N-(7-(2-methylbenzo[d]oxazol-7-yl)-3-oxoisoindolin-4-yl)-4-((2-(pyrrolidin-1-yl)ethyl)amino)benzamide]",360 nM

# More lines, now with the values ahead:
row,IC50,SMILES
1,680 nM,"NC1CCN(c2ccc(C(=O)Nc3ccc(-c4ccccc4)c4c3C(=O)NC4)cc2)CC1 [Example 340, 4-(4-Aminopiperidin-1-yl)-N-(3-oxo-7-phenylisoindolin-4-yl) benzamide]"
2,1140 nM,"O=C(Nc1ccc(-c2ccccc2)c2c1C(=O)NC2)c1ccc(OCCN2CCOCC2)cc1 [Example 345, 4-(2-Morpholinoethoxy)-N-(3-oxo-7-phenylisoindolin-4-yl) benzamide]"
3,960 nM,"CN(C)CCCNc1ccc(C(=O)Nc2ccc(-c3ccccc3O)c3c2C(=O)NC3)cc1 [Example 351, 4-((3-(Dimethylamino)propyl)amino)-N-(7-(2-hydroxyphenyl)-3-oxoisoindolin-4-yl)benzamide]"
4,84 nM,"COc1ccccc1-c1ccc(NC(=O)c2ccc(NCCO)cc2)c2c1CNC2=O [Example 352, 4-((2-Hydroxyethyl)amino)-N-(7-(2-methoxyphenyl)-3-oxoisoindolin-4-yl)benzamide]"
5,370 nM,"O=C(Nc1ccc(-c2ccccc2O)c2c1C(=O)NC2)c1ccc(NCCO)cc1 [Example 353, 4-((2-Hydroxyethyl)amino)-N-(7-(2-hydroxyphenyl)-3-oxoisoindolin-4-yl)benzamide]"
6,590 nM,O=C(Nc1ccc(-c2ccccc2O)c2c1C(=O)NC2)c1ccc(NCCCO)cc1 [Example 355]
7,1100 nM,"CNCCN(C)c1ccc(C(=O)Nc2ccc(-c3ccccc3)c3c2C(=O)NC3)cc1 [Example 358, 4-(Methyl(2-(methylamino)ethyl)amino)-N-(3-oxo-7-phenylisoindolin-4-yl)benzamide]"
8,320 nM,"O=C(Nc1ccc(-c2ccccc2)c2c1C(=O)NC2)c1ccc(NCCN2CCCCC2)cc1 [Example 360, N-(3-oxo-7-phenylisoindolin-4-yl)-4-((2-(piperidin-1-yl)ethyl)amino)benzamide]"
9,490 nM,"CN(C)CCNc1ccc(C(=O)Nc2ccc(-c3ccccc3)c3c2C(=O)NC3)cc1 [Example 362, 4-((2-(Dimethylamino)ethyl)amino)-N-(3-oxo-7-phenylisoindolin-4-yl)benzamide]"
10,330 nM,"O=C(Nc1ccc(-c2ccccc2)c2c1C(=O)NC2)c1ccc(NCCCN2CCCC2)cc1 [Example 363, N-(3-oxo-7-phenylisoindolin-4-yl)-4-((3-(pyrrolidin-1-yl)propyl)amino)benzamide]"
11,560 nM,"O=C(Nc1ccc(-c2ccccc2)c2c1C(=O)NC2)c1ccc(NCCN2CCCCCC2)cc1 [Example 369, 4-((2-(Azepan-1-yl)ethyl)amino)-N-(3-oxo-7-phenylisoindolin-4-yl)benzamide]"
12,510 nM,"O=C(Nc1ccc(-c2ccccc2)c2c1C(=O)NC2)c1ccc(NCCCN2CCCCC2)cc1 [Example 370, N-(3-oxo-7-phenylisoindolin-4-yl)-4-((3-(piperidin-1-yl)propyl)amino)benzamide]"
13,400 nM,"CN(C)CCNc1ccc(C(=O)Nc2ccc(-c3cccs3)c3c2C(=O)NC3)cc1 [Example 373, 4-((2-(Dimethylamino)ethyl)amino)-N-(3-oxo-7-(thiophen-2-yl)isoindolin-4-yl)benzamide]"
